Results taken from US9034898B2, “FGF receptor (FGFR) agonist dimeric compounds, process for the preparation thereof and therapeutic use thereof” (Sanofi, priority 2011, dated 2015).

Columns and labels:
[1] = test system: human venous endothelial cells (HUVECs); assay: In vitro angiogenesis model (pseudotubule length of HUVECs on matrigel/collagen); format: cell-based; set-up: % activation with respect to FGF2 (in vitro): concentration or dose not given beside the values; details: for activity on the in vitro angiogenesis model: at a concentration of 1 nM, HUVECs, 24 hours; for EC50 / % activation with respect to FGF2 (in vitro): in vitro; for % activation with respect to FGF2 (in vitro): relative to FGF2
Method: In Vitro Angiogenesis Model
The products are tested for their ability to cause rearrangement of human venous endothelial cells (HUVECs) on matrigel (Becton dickinson 356230) diluted in collagen (rat tail collagen, type I: Becton dickinson 354236). After 24 hours, the cells are observed under a microscope with a X4 objective and the length of the pseudotubules is measured by means of an image analyser (BIOCOM-logiciel Visiolab 2000).
By way of example, compounds 1, 2, 3, 5 and 9 are active at a concentration of 1 nM on the in vitro angiogenesis model.

BalbC mice = assay: Sponge angiogenesis model (haemoglobin content of implanted cellulose sponge); format: in vivo; details: concentration of 300 μM injected into the sponge, eighth day after implantation
Description: Sponge Angiogenesis Model
The sponge angiogenesis model is an adaptation of the technique of Andrade et al [Andrade S P, Machado R., Teixeir A S, Belo A V, Tarso A M, Beraldo W T—Sponge-induced angiogenesis in mice and the pharmacological reactivity of the neovasculature quantitated by fluorimetric method, Microvascular Research, 1997, 54: 253-61.]
The mice used are BalbC females from Charles River Laboratory, 7 to 10 weeks old. The animals are anaesthetized by intraperitoneal injection of a xylazine/ketamine mixture ([…] in 0.9% NaCl). The animal's back is shaved and disinfected with hexomedine. A subcutaneous 5 ml pocket of air is made on the animal's back with sterile air. An incision is then made (approximately 1 cm) on the top of the animal's back in order to implant the sponge into the pocket. The biocompatible cellulose sponge (Cellspon, Interchim, 10 mm in diameter) was sterilized beforehand (autoclave 20 min at 120° C.) and is impregnated with 50 μl of sterile solution containing the test product. Suturing is performed by inserting two 9-mm stainless steel autoclip staples (Subra). The wound is again disinfected with hexomedine. […]
To assay the haemoglobin, 50 μl of each sample are deposited in a 96-well plate, in duplicate. […] The OD values are read on a spectrophotometer at 405 nm, using the Biolise software (Tecan, France). […]

Row | SMILES | activity on the in vitro angiogenesis model [1] | EC50 [1] | % activation with respect to FGF2 (in vitro) [1] | EC50 ([1]; Homo sapiens, HUVEC) | activity on the in vivo angiogenesis model (BalbC mice)
1 | O=C(O)c1cc(-c2cc(C(=O)NCCCOCCOCCCNC(=O)c3cc(-c4ccc(F)c(C(=O)O)c4)nc4[nH]nc(-c5ccccc5)c34)c3c(-c4ccccc4)n[nH]c3n2)ccc1F [Compound 1, 3,3′-{ethane-1,2-diylbis[oxypropane-3,1-diylcarbamoyl(3-phenyl-1H-pyrazolo[3,4-b]pyridine-4,6-diyl)]}bis(6-fluorobenzoic acid)] | active | < 1 nM | 84% |  | 
2 | O=C(O)c1cc(-c2cc(C(=O)NCCCOCCOCCOCCCNC(=O)c3cc(-c4ccc(F)c(C(=O)O)c4)nc4[nH]nc(-c5ccccc5)c34)c3c(-c4ccccc4)n[nH]c3n2)ccc1F [Compound 2, 5-[4-({15-[6-(3-carboxy-4-fluorophenyl)-3-phenyl-1H-pyrazolo[3,4-b]pyridin-4-yl]-15-oxo-4,7,10-trioxa-14-azapentadec-1-yl}carbamoyl)-3-phenyl-1H-pyrazolo[3,4-b]pyridin-6-yl]-2-fluorobenzoic acid] | active |  | 84% | < 1 nM | active
3 | O=C(O)c1cc(-c2cc(C(=O)NCCOCCOCCOCCOCCNC(=O)c3cc(-c4ccc(F)c(C(=O)O)c4)nc4[nH]nc(-c5ccccc5)c34)c3c(-c4ccccc4)n[nH]c3n2)ccc1F [Compound 3, 5-[4-({16-[6-(3-carboxy-4-fluorophenyl)-3-phenyl-1H-pyrazolo[3,4-b]pyridin-4-yl]-16-oxo-3,6,9,12-tetraoxa-15-azahexadec-1-yl}carbamoyl)-3-phenyl-1H-pyrazolo[3,4-b]pyridin-6-yl]-2-fluorobenzoic acid] | active |  | 75% | < 1 nM | 
4 | O=C(O)c1cc(-c2cc(C(=O)NCCCOCCOCCOCCOCCOCCCNC(=O)c3cc(-c4ccc(F)c(C(=O)O)c4)nc4[nH]nc(-c5ccccc5)c34)c3c(-c4ccccc4)n[nH]c3n2)ccc1F [Compound 5, 5-[4-({21-[6-(3-carboxy-4-fluorophenyl)-3-phenyl-1H-pyrazolo[3,4-b]pyridin-4-yl]-21-oxo-4,7,10,13,16-pentaoxa-20-azahenicos-1-yl}carbamoyl)-3-phenyl-1H-pyrazolo[3,4-b]pyridin-6-yl]-2-fluorobenzoic acid] | active |  | 124% | < 1 nM | 
5 | NC(=O)c1cc(-c2ccc(F)c(C(=O)O)c2)nc2[nH]nc(-c3cccc(C(=O)NCCCOCCOCCOCCCNC(=O)c4cccc(-c5n[nH]c6nc(-c7ccc(F)c(C(=O)O)c7)cc(C(N)=O)c56)c4)c3)c12 [Compound 6, 5-(4-carbamoyl-3-{3-[(15-{3-[4-carbamoyl-6-(3-carboxy-4-fluorophenyl)-1H-pyrazolo[3,4-b]pyridin-3-yl]phenyl}-15-oxo-4,7,10-trioxa-14-azapentadec-1-yl)carbamoyl]phenyl}-1H-pyrazolo[3,4-b]pyridin-6-yl)-2-fluorobenzoic acid] |  |  | 50% | 3 nM | 
6 | NC(=O)c1cc(-c2ccc(F)c(C(=O)O)c2)nc2[nH]nc(-c3ccc(C(=O)NCCCOCCOCCOCCCNC(=O)c4ccc(-c5n[nH]c6nc(-c7ccc(F)c(C(=O)O)c7)cc(C(N)=O)c56)cc4)cc3)c12 [Compound 8, 5-(4-carbamoyl-3-{4-[(15-{4-[4-carbamoyl-6-(3-carboxy-4-fluorophenyl)-1H-pyrazolo[3,4-b]pyridin-3-yl]phenyl}-15-oxo-4,7,10-trioxa-14-azapentadec-1-yl)carbamoyl]phenyl}-1H-pyrazolo[3,4-b]pyridin-6-yl)-2-fluorobenzoic acid] |  |  | 20% | < 100 nM | 
7 | NC(=O)c1cc(-c2ccc(F)c(C(=O)O)c2)nc2[nH]nc(-c3ccc(C(=O)NCCOCCOCCNC(=O)c4ccc(-c5n[nH]c6nc(-c7ccc(F)c(C(=O)O)c7)cc(C(N)=O)c56)cc4)cc3)c12 [Compound 9, 3,3′-{ethane-1,2-diylbis[oxyethane-2,1-diylcarbamoylbenzene-4,1-diyl(4-carbamoyl-1H-pyrazolo[3,4-b]pyridine-3,6-diyl)]}bis(6-fluorobenzoic acid)] | active | < 1 nM | 60% |  | 
